This passage reports melting point results from patent publication US6472391B2, “Nitrogen-containing heterocyclic compounds” (Millennium Pharmaceuticals, Inc., priority 1996, dated 2002).

SMILES strings stand for the structures.

`COc1cc2ncnc(N3CCN(C(=O)Nc4ccc(I)cc4)CC3)c2cc1OC` [Compound 46, 4-(6,7-Dimethoxy-4-quinazolinyl)-N-(4-iodophenyl)-1-piperazinecarboxamide] had a melting point of 238 to 242 °C.
Next, `COc1cc2ncnc(N3CCN(C(=S)Nc4ccc(S(N)(=O)=O)cc4)CC3)c2cc1OC` [Compound 93, 4-(6,7-Dimethoxy-4-quinazolinyl)-N-(4-sulfamoylphenyl)-1-piperazinethiocarboxamide]: 172 to 180 °C; `COc1cc2ncnc(N3CCN(C(=O)Nc4ccncc4)CC3)c2cc1OC` [Compound 267, 4-(6,7-Dimethoxy-4-quinazolinyl)-N-(4-pyridyl)-1-piperazinecarboxamide]: 141 to 143 °C.
Next, `COc1cc2nc(C)nc(N3CCN(C(=O)Nc4ccc(Oc5ccccc5)cc4)CC3)c2cc1OC` [Compound 391, 4-(6,7-Dimethoxy-2-methyl-4-quinazolinyl)-N-(4-phenoxyphenyl)-1-piperazinecarboxamide]: 146 to 147 °C; `S=C(NCc1cccnc1)N1CCN(c2ncnc3cc4c(cc23)OCCO4)CC1` [Compound 375, 4-(6,7-Ethylenedioxy-4-quinazolinyl)-N-(3-picolyl)-1-piperazinethiocarboxamide]: 110 to 113 °C.
`COc1cc2ncnc(N3CCN(C(=O)NCc4cccs4)CC3)c2cc1OC` [Compound 259, 4-(6,7-Dimethoxy-4-quinazolinyl)-N-(2-thienylmethyl)-1-piperazinecarboxamide] returned a melting point of 168 to 170 °C.
To `COc1cc2ncnc(N3CCN(C(=S)NCc4ccccc4Cl)CC3)c2cc1OC` [Compound 176, N-(2-Chlorobenzyl)-4-(6,7-dimethoxy-4-quinazolinyl)-1-piperazinethiocarboxamide] belongs 175 to 176 °C; to `Fc1cc2ncnc(N3CCN(C(=S)NCc4cccnc4)CC3)c2cc1F` [Compound 331, 4-(6,7-Difluoro-4-quinazolinyl)-N-(3-picolyl)-1-piperazinethiocarboxamide], 177 to 178 °C; to `COc1ccc2ncnc(N3CCN(C(=O)Nc4ccc(Oc5ccccc5)cc4)CC3)c2c1` [Compound 307, 4-(6-Methoxy-4-quinazolinyl)-N-(4-phenoxyphenyl)-1-piperazinecarboxamide], 139 to 140 °C.
To `O=C(Nc1ccc(Oc2ccccc2)cc1)N1CCN(c2ncnc3cc([N+](=O)[O-])ccc23)CC1` [Compound 322, 4-(7-Nitro-4-quinazolinyl)-N-(4-phenoxyphenyl)-1-piperazinecarboxamide] belongs 146 to 148 °C.
`COc1cccc2c(N3CCN(C(=O)Nc4ccc(C(C)C)cc4)CC3)ncnc12` [Compound 326, N-(4-Isopropylphenyl)-4-(8-methoxy-4-quinazolinyl)-1-piperazinecarboxamide] registered a melting point of 102 to 104 °C.
To `COc1cc2ncnc(N3CCN(C(=O)Nc4ccc(C(C)(C)C)cc4)CC3)c2cc1OC` [Compound 156, N-(4-tert-Butylphenyl)-4-(6,7-dimethoxy-4-quinazolinyl)-1-piperazinecarboxamide] belongs 109 to 111 °C; to `COc1cc2ncnc(N3CCN(C(=O)Nc4ccc(OC(F)F)cc4)CC3)c2cc1OC` [Compound 158, N-(4-Difluoromethoxyphenyl)-4-(6,7-dimethoxy-4-quinazolinyl)-1-piperazinecarboxamide], 190 to 192 °C.
Next, `FC(F)(F)Oc1ccc2nccc(N3CCN(C(=S)NCc4ccccc4)CC3)c2c1` [Compound 403, N-Benzyl-4-(6-trifluoromethoxy-4-quinolyl)-1-piperazinethiocarboxamide]: 70 to 71 °C.
To `Cn1c(=O)n(C)c2cc3c(N4CCN(C(=O)Nc5ccc([N+](=O)[O-])cc5)CC4)ncnc3cc21` [Compound 386, 4-(1,3-Dihydro-1,3-dimethyl-2-oxo-2H-imidazo[4,5-g]quinazolin-8-yl)-N-(4-nitrophenyl)-1-piperazinecarboxamide] belongs 299 to 300 °C.

One may read the melting point as the temperature of the solid-liquid transition.
